Assay results reported in ChEMBL document CHEMBL1201862, “PubChem BioAssay data set” (2004).
Active and inactive are the calls of the source.

How the values were obtained:
H9c2 = assay: cells; type: functional, cell-based; conditions: Rattus norvegicus, H9c2, Myocardium;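 further: confirmatory concentration-response retest of ultra-high-throughput screening hits for modulation of myocardial damage; cell death induced by hydrogen peroxide oxidative stress; compound pretreatment for 60 min then peroxide exposure for 2 h; potency is for protecting the cells against peroxide damage rather than for killing them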
[1] = target: FAD-linked sulfhydryl oxidase ALR (Homo sapiens, UniProt P55789); assay: ALR-catalysed DTT oxidation blockers – biochemical, H2O2 detection, luminescence, cherry-pick, dose response (AID 493248)
Protein RecA = target: T1, Protein RecA (Mycobacterium tuberculosis, UniProt P9WHJ3); assay: Fluorescence Cell-Free Homogeneous Dose Retest to Identify Inhibitors of RecA-Intein Splicing Activity. [Related pubchem assays (depositor defined):AID2097, AID2223, AID489010, AID492950]; type: functional
T1 sequence (P9WHJ3 whole entry): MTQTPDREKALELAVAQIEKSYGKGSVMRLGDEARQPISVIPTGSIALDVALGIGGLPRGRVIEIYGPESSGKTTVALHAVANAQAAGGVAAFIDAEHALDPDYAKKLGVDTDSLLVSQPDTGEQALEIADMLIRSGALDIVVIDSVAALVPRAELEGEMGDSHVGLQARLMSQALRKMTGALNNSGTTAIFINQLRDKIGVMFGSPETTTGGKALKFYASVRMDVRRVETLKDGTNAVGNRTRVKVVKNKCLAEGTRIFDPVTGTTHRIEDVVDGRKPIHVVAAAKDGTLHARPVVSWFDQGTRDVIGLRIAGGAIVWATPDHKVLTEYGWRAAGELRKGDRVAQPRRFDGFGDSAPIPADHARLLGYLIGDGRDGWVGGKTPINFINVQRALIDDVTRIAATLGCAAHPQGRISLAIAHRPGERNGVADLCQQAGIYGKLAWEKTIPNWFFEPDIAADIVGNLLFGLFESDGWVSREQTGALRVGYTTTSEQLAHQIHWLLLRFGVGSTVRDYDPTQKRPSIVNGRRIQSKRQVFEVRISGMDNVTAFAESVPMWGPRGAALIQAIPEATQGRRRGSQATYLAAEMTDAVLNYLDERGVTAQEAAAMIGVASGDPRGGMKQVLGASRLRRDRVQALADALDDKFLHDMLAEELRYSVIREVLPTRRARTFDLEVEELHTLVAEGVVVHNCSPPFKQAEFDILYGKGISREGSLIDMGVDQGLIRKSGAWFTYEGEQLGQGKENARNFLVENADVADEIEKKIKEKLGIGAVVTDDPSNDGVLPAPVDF

[2] = target: T2, Replicative DNA helicase DnaB (Mycobacterium tuberculosis, UniProt P9WMR3); assay: DnaB intein splicing inhibitors, dose response, biochemical, cell-free fluorescence (AID 449749); type: functional
T2 sequence (P9WMR3 whole entry): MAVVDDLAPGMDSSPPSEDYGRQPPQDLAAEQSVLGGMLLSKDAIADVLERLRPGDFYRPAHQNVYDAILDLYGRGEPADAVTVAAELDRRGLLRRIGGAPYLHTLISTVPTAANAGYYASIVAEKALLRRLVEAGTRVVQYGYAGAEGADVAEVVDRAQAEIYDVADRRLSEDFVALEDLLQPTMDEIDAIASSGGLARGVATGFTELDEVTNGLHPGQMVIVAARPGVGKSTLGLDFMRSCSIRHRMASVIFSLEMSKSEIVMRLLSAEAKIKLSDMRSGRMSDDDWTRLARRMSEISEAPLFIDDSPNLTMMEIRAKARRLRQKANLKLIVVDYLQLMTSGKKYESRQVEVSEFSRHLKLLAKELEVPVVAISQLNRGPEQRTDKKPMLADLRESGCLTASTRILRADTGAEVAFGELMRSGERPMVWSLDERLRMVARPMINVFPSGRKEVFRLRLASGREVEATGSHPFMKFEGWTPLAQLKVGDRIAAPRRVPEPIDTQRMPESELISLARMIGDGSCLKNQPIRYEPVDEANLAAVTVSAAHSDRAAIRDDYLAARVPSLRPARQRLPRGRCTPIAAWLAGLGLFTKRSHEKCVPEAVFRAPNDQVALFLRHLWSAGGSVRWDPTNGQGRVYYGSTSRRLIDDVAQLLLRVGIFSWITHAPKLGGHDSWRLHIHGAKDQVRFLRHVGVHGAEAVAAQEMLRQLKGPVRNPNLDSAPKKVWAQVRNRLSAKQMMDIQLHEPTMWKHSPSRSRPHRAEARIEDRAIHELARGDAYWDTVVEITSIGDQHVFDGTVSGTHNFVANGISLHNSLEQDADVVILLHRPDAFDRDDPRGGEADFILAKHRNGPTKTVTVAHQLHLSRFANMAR

Paired box protein Pax-8 = Paired box protein Pax-8 (Homo sapiens, UniProt Q06710); assay: PAX8 transcriptional activity inhibition in RMG-I – RMG-I cells, luciferase, cherry-pick, dose response (AID 687027); type: functional, cell-based;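 further: luciferase reporter driven by Pax8 target thyroperoxidase promoter measured by SteadyGlo luminescence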
[3] = viability of HCT116 lacking mutant beta-catenin – cell-based, human colon tumor, dose response (AID 1045); type: functional;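 further: HCT116 colon tumor cells with beta catenin knocked out; cells exposed to compound for 60 hours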
[4] = viability of PTEN-deleted HCT116 cells – cell-based, HCT116 PTEN knockout, dose response (AID 1047); type: functional;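 further: HCT116 colon tumor cells with PTEN knocked out; cells exposed to compound for 60 hours before readout; potency for loss of cell viability measured by luminescence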
[5] = NIH-3T3 fibroblast cytotoxicity, dose response, cytotoxicity control, cell-based, fluorescence, Alamar Blue, secondary assay (AID 2327); type: functional;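 further: NIH-3T3 mouse fibroblasts cultured with fluconazole at 8 µg/mL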
[6] = fluconazole-exposed Candida albicans growth modulators – fluorescence, retest, confirmation (AID 2467); type: functional, cell-based
[7] = target: T3, Microphthalmia-associated transcription factor (Homo sapiens, UniProt O75030); assay: reducers of TRPM1 reporter luminescence, concentration series – cell-based, SK-MEL-5, cherry-picked, set 3, MITF inhibitor project, dose response (AID 493073); type: functional;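 further: SK-MEL-5 melanoma cells with luciferase driven by the MITF target TRPM1 promoter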
T3 sequence (O75030 whole entry): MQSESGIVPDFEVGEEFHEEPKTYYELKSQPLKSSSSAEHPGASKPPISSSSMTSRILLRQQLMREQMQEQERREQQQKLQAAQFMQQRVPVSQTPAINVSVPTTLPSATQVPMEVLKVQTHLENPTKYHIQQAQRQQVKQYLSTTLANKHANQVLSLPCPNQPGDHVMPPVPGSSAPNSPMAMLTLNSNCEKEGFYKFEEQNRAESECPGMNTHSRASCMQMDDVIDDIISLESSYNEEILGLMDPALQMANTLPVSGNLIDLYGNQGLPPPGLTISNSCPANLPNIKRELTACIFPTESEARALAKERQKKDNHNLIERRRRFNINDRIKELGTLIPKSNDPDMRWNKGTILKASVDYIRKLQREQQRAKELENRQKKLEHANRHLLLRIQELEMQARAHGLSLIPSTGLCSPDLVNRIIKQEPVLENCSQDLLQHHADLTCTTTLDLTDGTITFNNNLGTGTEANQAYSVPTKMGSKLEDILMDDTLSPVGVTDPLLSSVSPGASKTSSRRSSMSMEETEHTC

Vero = assay: cells; type: functional; conditions: Chlorocebus sabaeus
[8] = viability of uninfected HEp-2 cells – cell-based, HTS, cytotoxicity control for RSV inhibitor project, dose response (AID 2410); type: functional; conditions: human respiratory syncytial virus
[9] = target: Induced myeloid leukemia cell differentiation protein Mcl-1 (Homo sapiens, UniProt Q07820); type: functional
[10] = target: T4, Calpain-2 catalytic subunit (Sus scrofa, UniProt P43367); assay: m-calpain protease blockers, concentration series – biochemical, fluorogenic peptide substrate, dose response (AID 1420); type: functional
T4 sequence (P43367 whole entry): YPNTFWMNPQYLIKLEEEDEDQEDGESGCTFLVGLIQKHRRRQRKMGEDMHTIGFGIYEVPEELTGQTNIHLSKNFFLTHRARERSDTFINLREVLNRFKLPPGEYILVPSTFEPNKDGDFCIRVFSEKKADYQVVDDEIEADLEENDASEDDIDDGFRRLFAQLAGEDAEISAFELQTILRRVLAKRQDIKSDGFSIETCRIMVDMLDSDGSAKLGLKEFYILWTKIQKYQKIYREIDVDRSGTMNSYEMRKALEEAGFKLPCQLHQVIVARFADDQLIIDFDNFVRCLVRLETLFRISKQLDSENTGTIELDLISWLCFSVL

[11] = blockers of HIV-1 envelope-mediated cell-cell fusion – cherry-pick, dose response (AID 652057); type: functional, cell-based
[12] = off-target signal loss in HeLa-CEM21 co-culture – HeLa F-luc CTL cells, cherry-picked, counter-screen for HIV-1 Env fusion inhibitor project, dose response (AID 652040); type: functional, cell-based;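 further: potency for signal decrease marking cytotoxic or nonspecific inhibition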

Chain of FAD-linked sulfhydryl oxidase ALR (P55789 whole entry): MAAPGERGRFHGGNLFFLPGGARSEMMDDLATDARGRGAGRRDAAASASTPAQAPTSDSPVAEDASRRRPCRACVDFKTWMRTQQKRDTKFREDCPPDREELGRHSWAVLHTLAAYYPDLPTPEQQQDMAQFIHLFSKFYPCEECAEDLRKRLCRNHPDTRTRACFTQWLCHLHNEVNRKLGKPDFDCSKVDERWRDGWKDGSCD
Chain of Paired box protein Pax-8 (Q06710 whole entry): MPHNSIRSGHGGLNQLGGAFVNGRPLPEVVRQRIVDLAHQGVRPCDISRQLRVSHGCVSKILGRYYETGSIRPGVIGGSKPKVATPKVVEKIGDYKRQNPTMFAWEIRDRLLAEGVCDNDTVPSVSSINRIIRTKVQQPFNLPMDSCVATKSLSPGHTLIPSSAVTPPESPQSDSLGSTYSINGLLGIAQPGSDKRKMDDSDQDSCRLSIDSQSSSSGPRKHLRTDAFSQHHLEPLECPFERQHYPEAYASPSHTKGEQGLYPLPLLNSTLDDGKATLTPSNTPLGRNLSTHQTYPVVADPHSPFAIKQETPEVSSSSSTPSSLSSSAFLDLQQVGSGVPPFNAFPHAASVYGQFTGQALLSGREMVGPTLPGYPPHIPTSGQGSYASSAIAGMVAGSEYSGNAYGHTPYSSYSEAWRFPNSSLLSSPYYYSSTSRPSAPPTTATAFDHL
Chain of Induced myeloid leukemia cell differentiation protein Mcl-1 (Q07820 whole entry): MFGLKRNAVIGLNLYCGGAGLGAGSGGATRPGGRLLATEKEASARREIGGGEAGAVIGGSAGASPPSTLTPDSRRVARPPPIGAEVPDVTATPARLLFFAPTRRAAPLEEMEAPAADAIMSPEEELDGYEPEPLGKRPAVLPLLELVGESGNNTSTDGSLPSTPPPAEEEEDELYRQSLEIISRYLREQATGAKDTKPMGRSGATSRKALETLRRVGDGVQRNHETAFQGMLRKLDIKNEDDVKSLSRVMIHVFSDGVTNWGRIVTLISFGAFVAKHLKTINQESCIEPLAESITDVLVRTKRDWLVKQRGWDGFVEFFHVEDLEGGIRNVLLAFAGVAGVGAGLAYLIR

SMILES: CC(OC(=O)Cc1nnc(O)c2ccccc12)C(=O)Nc1cc(Cl)cc(Cl)c1 (stereo not given)
- IC50 (H9c2): 20.8 µM (active)

SMILES: COc1ccc(C(=O)NNS(=O)(=O)c2ccc(OC)cc2)cc1
- AC50 [1]: 12.7 µM (active)

SMILES: COC(=O)Nc1ccc(S(=O)(=O)Nc2ccc(O)cc2)cc1
- AC50 [1]: 1.38 µM (active)

SMILES: O=C(CCl)N1CCN(S(=O)(=O)c2ccc3ccccc3c2)CC1
- EC50 (Protein RecA): 1.58 µM (active)
- AC50 [2]: 12.7 µM (active)

SMILES: O=C(C[C@H]1CC[C@H]2[C@@H](COC[C@@H](O)CN2Cc2ccc(Oc3ccccc3)cc2)O1)N1CCCCC1
- AC50 (Paired box protein Pax-8): 15 µM (active)

SMILES: COc1ccc2nc(SCC(=O)Nc3ccc4sc(C)nc4c3)c(C#N)cc2c1
- EC50 [3]: 20 µM (active)
- EC50 [4]: 21.3 µM (active)

SMILES: Cc1ccc2nc(N(CCCN(C)C)C(=O)CCc3ccccc3)sc2c1
- EC50 [3]: 16.6 µM (active)
- EC50 [4]: 16.6 µM (active)

SMILES: COc1cc(C(=O)NNC(=O)c2ccc3ccccc3n2)cc(OC)c1OC
- IC50 (H9c2): 8.15 µM (active)

SMILES: Oc1nnc(CNc2ccc(C(F)(F)F)cc2)c2ccccc12
- IC50 (H9c2): 27.5 µM (active)

SMILES: CC1CCCCC12NC(=O)N(CC(=O)Nc1ccc(S(=O)(=O)Nc3ncccn3)cc1)C2=O (stereo not given)
- AC50 [1]: 6.47 µM (active)

SMILES: N=c1sccn1CC(=O)Nc1ccc(SC(F)F)cc1
- AC50 [1]: 1.68 µM (active)

SMILES: COc1ccc(NC(=O)C(Sc2nnc(-c3ccncc3)n2-c2ccccc2C)c2ccccc2)cc1Cl (stereo not given)
- AC50 (Paired box protein Pax-8): 15.5 µM (active)

SMILES: O=C(Cn1[nH]c(=O)c2ccccc2c1=O)NC1CCCCCC1
- IC50 (H9c2): 25.3 µM (active)

SMILES: Cn1c(/C=C/c2cccc([N+](=O)[O-])c2)c([N+](=O)[O-])c(=O)n(C)c1=O
- EC50 [5]: 58.4 µM (active)
- EC50 [6]: 7.56 µM (active)
- AC50 [7]: 27.8 µM (active)
- CC50 (Vero): 22.7 µM (active)
- CC50 [8]: 36 µM (active)

SMILES: Cc1ccc(OCCN2CCN(CC(O)Cn3c4ccccc4c4ccccc43)CC2)cc1 (stereo not given)
- EC50 [3]: 10.9 µM (active)
- EC50 [4]: 13.6 µM (active)

SMILES: CC(NC(=O)C1CC1)C(c1cccs1)N1CCN(c2ccccc2)CC1 (stereo not given)
- AC50 [1]: 0.362 µM (active)

SMILES: COCCn1/c(=N/C(=O)c2sc3ccccc3c2Cl)sc2cc(S(N)(=O)=O)ccc21
- EC50 [3]: 22.5 µM (active)
- EC50 [4]: 23.2 µM (active)

SMILES: Cc1c(O)cccc1C(=O)N[C@@H](CSc1ccccc1)[C@H](O)CN1C[C@H]2CCCC[C@H]2C[C@H]1C(=O)NC(C)(C)C
- CC50 (Vero): > 25 µM (active)

SMILES: Cc1ccc(NC(=O)CN2C(=O)/C(=C3\SC(=S)N(C4CCS(=O)(=O)C4)C3=O)c3ccccc32)cc1 (stereo not given)
- IC50 [9]: 24.1 µM (active)
- IC50 [10]: 9.72 µM (not active)

SMILES: CCOc1cc(/C=N\NC(=O)c2ccc(NC(=O)C(C)(C)C)cc2)ccc1OC(=O)c1cccc(C)c1
- IC50 (H9c2): > 79 µM (inactive)

SMILES: Cc1ccc(-c2nnc(S)n2/N=C/c2c(C)nn(-c3ccccc3)c2O)cc1
- AC50 [1]: 13.5 µM (active)

SMILES: CCN(CC(=O)Nc1c(C(=O)OC)[nH]c2ccc(Cl)cc12)c1ccc2c(c1)OCO2
- EC50 [3]: 27.7 µM (active)
- EC50 [4]: 19.4 µM (active)

SMILES: CC(=O)Nc1ccc(C(=O)N/N=C/c2ccccc2OC(=O)c2ccc(Cl)cc2)cc1
- IC50 (H9c2): 8.26 µM (active)

SMILES: CC(NC(=O)c1ccccc1NC(=O)CN1CCc2ccccc2C1)c1ccccc1 (stereo not given)
- AC50 [11]: 9.12 µM (active)
- AC50 [12]: 49.2 µM (active)

SMILES: O=C(NCC1(c2ccccc2)CCCC1)C1(c2ccccc2)CCCC1
- EC50 (Protein RecA): 53.3 µM (active)
- AC50 [2]: 10 µM (active)

SMILES: COc1ccnc(Oc2ccc(F)cc2)c1C(=O)N=CNOCc1ccc(Cl)cc1Cl
- IC50 (H9c2): > 79 µM (inactive)

SMILES: CCOC(=O)c1cn(-c2nc(-c3ccc(Cl)c(Cl)c3)cs2)c2c(F)c(N3CCOCC3)c(F)cc2c1=O
- EC50 [3]: 18.6 µM (active)
- CC50 [8]: 28.4 µM (active)
- EC50 [4]: 8.96 µM (active)

SMILES: CCOc1ccc(-n2c(SCC(=O)Nc3cc(C)on3)nc3c4ccccc4nc-3c2O)cc1
- EC50 [3]: 28.6 µM (active)
- EC50 [4]: 28.4 µM (active)

SMILES: CCN(C(=O)c1ccc2c(Cl)c3c(nc2c1)CCC3)c1ccc(C)c(C)c1
- EC50 (Protein RecA): 2.59 µM (active)
- AC50 [2]: 14.1 µM (active)

SMILES: O=C(NCc1ccco1)/C(=C/c1cccc(C(F)(F)F)c1)c1nc2ccccc2[nH]1
- EC50 (Protein RecA): 54.4 µM (active)
- AC50 [2]: > 380 µM (inactive)
- CC50 (Vero): 13.7 µM (active)

SMILES: CC[C@@H](C)[C@H](NC(=O)Cc1c(C)c2cc3c(C)coc3c(C)c2oc1=O)C(=O)O
- AC50 [1]: 2.39 µM (active)

SMILES: COc1ccc(NC(=O)Nc2ccc3c(c2)C(=O)N([C@@H](C)CO)C[C@@H](C)[C@@H](CN(C)Cc2ccc(C(F)(F)F)cc2)OCCCC[C@@H](C)O3)cc1
- AC50 (Paired box protein Pax-8): 8.18 µM (active)

SMILES: CC(C)CC(=O)NC(=S)NNC(=O)c1ccc([N+](=O)[O-])cc1
- CC50 (Vero): 24.6 µM (active)

SMILES: O=C(NCCc1ccc(F)cc1)C(=O)Nc1cc2c3c(c1)CC(=O)N3CCC2
- IC50 (H9c2): > 79 µM (inactive)

SMILES: Cc1ccc(CNC(=O)c2oc3ccc(S(=O)(=O)N4CCOCC4)cc3c2C)cc1
- IC50 [10]: 23.5 µM (not active)
- IC50 (H9c2): > 79 µM (inactive)
